# Test results: PubChem BioAssay (NCI)
#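 Compound exposure: 48 hours, 5 concentrations, 96-well plates. GI50: concentration for 50% inhibition of growth. TGI: concentration producing complete growth inhibition.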
# Columns and labels:
# Assay in all cases: growth of human tumour cells (NCI), 48 h
# [1] = test system: HCC-2998 colon
# [2] = test system: HCT-15 colon
# [3] = test system: MCF7 breast
# [4] = test system: RPMI-8226 leukemia
# [5] = test system: HL-60(TB) leukemia
# [6] = test system: UACC-62 melanoma
# [7] = test system: HCT-116 colon
# [8] = test system: NCI/ADR-RES ovarian
# [9] = test system: NCI-H522 lung
# [10] = test system: SF-295 CNS
# [11] = test system: SW-620 colon
# [12] = test system: SK-MEL-5 melanoma
# [13] = test system: COLO 205 colon
# [14] = test system: SNB-75 CNS
# [15] = test system: HS 578T breast
# [16] = test system: BT-549 breast
# [17] = test system: SK-OV-3 ovarian
# [18] = test system: TK-10 renal
# [19] = test system: HOP-92 NSCLC
# [20] = test system: CAKI-1 renal
# [21] = test system: NCI-H23 lung
# [22] = test system: OVCAR-8 ovarian
# [23] = test system: 786-0 renal
# [24] = test system: RXF 393 renal
# [25] = test system: A549 NSCLC
# [26] = test system: A498 renal
# [27] = test system: SK-MEL-2 melanoma
# [28] = test system: UO-31 renal
# [29] = test system: SK-MEL-28 melanoma
# [30] = test system: ACHN renal
# [31] = test system: DU-145 prostate
# [32] = test system: NCI-H226 lung
# [33] = test system: MOLT-4 leukemia
# [34] = test system: K-562 leukemia
# [35] = test system: UACC-257 melanoma
# [36] = test system: SN12C renal
# [37] = test system: EKVX NSCLC
# [38] = test system: CCRF-CEM leukemia
# [39] = test system: IGROV1 ovarian
# [40] = test system: PC-3 prostate
# [41] = test system: NCI-H460 lung
# [42] = test system: LOX IMVI melanoma
# [43] = test system: KM12 colon
# [44] = test system: SNB-19 CNS
# [45] = test system: HOP-62 NSCLC
# [46] = test system: U251 CNS
# [47] = test system: MDA-MB-231 breast
# [48] = test system: SR leukemia
# [49] = test system: SF-539 CNS
# [50] = test system: M14 melanoma
# [51] = test system: MALME-3M melanoma
# [52] = test system: OVCAR-5 ovarian
# [53] = test system: MDA-MB-435
# [54] = test system: HT29 colon
# [55] = test system: OVCAR-4 ovarian
# [56] = test system: SF-268 CNS
# [57] = test system: OVCAR-3 ovarian
# [58] = test system: T-47D breast
smiles,measurement,setting,value
Cc1c(NC(=O)c2cc(C(N)=O)nc3cc(F)ccc23)c(C(F)(F)F)nn1Cc1ccc(C#N)cc1,GI50,[1],5.16 µM
same,TGI,[1],> 100 µM
same,GI50,[2],23 µM
same,TGI,[2],> 100 µM
same,GI50,[3],0.276 µM
same,TGI,[3],17.7 µM
same,GI50,[4],0.0101 µM
same,TGI,[4],3.67 µM
same,GI50,[5],29.8 µM
same,TGI,[5],> 100 µM
same,GI50,[6],6.35 µM
same,TGI,[6],> 100 µM
same,GI50,[7],2.84 µM
same,TGI,[7],> 100 µM
same,GI50,[8],12.3 µM
same,TGI,[8],> 100 µM
same,GI50,[9],18.3 µM
same,TGI,[9],> 64.4 µM
same,GI50,[10],10.4 µM
same,TGI,[10],54.9 µM
same,GI50,[11],23.8 µM
same,TGI,[11],> 100 µM
same,GI50,[12],16.3 µM
same,TGI,[12],> 100 µM
same,GI50,[13],0.504 µM
same,TGI,[13],3.23 µM
same,GI50,[14],5.8 µM
same,TGI,[14],45.2 µM
same,GI50,[15],0.0592 µM
same,TGI,[15],8.46 µM
same,GI50,[16],1.78 µM
same,TGI,[16],25.3 µM
same,GI50,[17],2.76 µM
same,TGI,[17],21.4 µM
same,GI50,[18],3.2 µM
same,TGI,[18],> 53.6 µM
same,GI50,[19],1.28 µM
same,TGI,[19],18.1 µM
same,GI50,[20],5.66 µM
same,TGI,[20],35.1 µM
same,GI50,[21],22.2 µM
same,TGI,[21],> 100 µM
same,GI50,[22],7.02 µM
same,TGI,[22],> 100 µM
same,GI50,[23],3.77 µM
same,TGI,[23],> 100 µM
same,GI50,[24],5.56 µM
same,TGI,[24],28.8 µM
same,GI50,[25],16.6 µM
same,TGI,[25],> 100 µM
same,GI50,[26],15.1 µM
same,TGI,[26],62.4 µM
same,GI50,[27],19.2 µM
same,TGI,[27],> 83.7 µM
same,GI50,[28],1.78 µM
same,TGI,[28],> 100 µM
same,GI50,[29],37.4 µM
same,TGI,[29],> 100 µM
same,GI50,[30],12.4 µM
same,TGI,[30],71.1 µM
same,GI50,[31],1.1 µM
same,TGI,[31],> 56.4 µM
same,GI50,[32],13.4 µM
same,TGI,[32],> 100 µM
same,GI50,[33],1.7 µM
same,TGI,[33],> 100 µM
same,GI50,[34],13.1 µM
same,TGI,[34],> 100 µM
same,GI50,[35],> 95.3 µM
same,TGI,[35],> 100 µM
same,GI50,[36],1.59 µM
same,TGI,[36],> 72 µM
same,GI50,[37],21.9 µM
same,TGI,[37],> 100 µM
same,GI50,[38],0.167 µM
same,TGI,[38],> 100 µM
same,GI50,[39],2.02 µM
same,TGI,[39],> 80.7 µM
same,GI50,[40],0.451 µM
same,TGI,[40],24.4 µM
same,GI50,[41],4.76 µM
same,TGI,[41],> 100 µM
same,GI50,[42],8.13 µM
same,TGI,[42],> 100 µM
same,GI50,[43],0.512 µM
same,TGI,[43],> 37.9 µM
same,GI50,[44],3.44 µM
same,TGI,[44],30 µM
same,GI50,[45],13.6 µM
same,TGI,[45],> 87.3 µM
same,GI50,[46],1.67 µM
same,TGI,[46],18.9 µM
same,GI50,[47],17.8 µM
same,TGI,[47],> 100 µM
same,GI50,[48],48.8 µM
same,TGI,[48],> 100 µM
same,GI50,[49],14.3 µM
same,TGI,[49],49.6 µM
same,GI50,[50],58.8 µM
same,TGI,[50],> 100 µM
same,GI50,[51],14.4 µM
same,TGI,[51],74.5 µM
same,GI50,[52],8.61 µM
same,TGI,[52],97.5 µM
same,GI50,[53],56.9 µM
same,TGI,[53],> 100 µM
same,GI50,[54],0.219 µM
same,TGI,[54],1.91 µM
same,GI50,[55],4.91 µM
same,TGI,[55],> 76.9 µM
same,GI50,[56],14.3 µM
same,TGI,[56],> 69.3 µM
same,GI50,[57],2.4 µM
same,TGI,[57],> 64.5 µM
same,GI50,[58],0.295 µM
same,TGI,[58],31.3 µM
